This is an account of results in patent publication US20030095979A1, “Pharmaceutical preparations comprising modified peptides” (Cistem Biotechnologies GMBH, priority 2001, published 2003).

What all share (design): species or system mice (C57BL/6)
Experiment [1] relates to SIINFEKL specific IFN-γ-producing T cells. The experiment can be described thus: Example 1: mice vaccinated subcutaneously in the flank 3 times, splenocytes activated ex vivo with SIINFEKL, IFN-γ ELISpot assay. As to conditions: for peptide specific T cells induced: without adding poly-L-arginine, 100 μg peptide s.c. flank days 0, 21, 28, spleen one week after third vaccination. As for the experimental part: Groups of 4 mice (C75BL/6, femal, 8 weeks of age, H-2^b were injected subcutaneoulsy in the flank 3 times (days 0, 21 and 28) as follows (dose 100 μg of peptide, molarity adapted; +/−100 μg poly-L-arginine per mouse):
One week after the third vaccination spleens were removed and the splenocytes were activated ex vivo with peptide SIINFEKL (“245”) to determine IFN-y-producing specific cells (ELISpot assay).

The test system of experiment [2] is specific IFN-γ-producing T cells. The experiment can be described thus: Example 2: mice vaccinated subcutaneously in the footpad 3 times, lymph node cells and splenocytes activated ex vivo with SIINFEKL, IFN-γ ELISpot assay. As to conditions: in combination with 100 μg poly-L-arginine; 100 μg peptide s.c. footpad days 0, 14, 28; one week after 3rd vaccination. As for the experimental part:
Groups of 4 mice (C57BL/6, female, 6 weeks of age, II-2^b) were injected subcutaneously in the footpad 3 times (days 0, 14, 28) as follows (dose 100 ug of peptide, molarity adapted; +100 μg poly-L-arginine per mouse):
Groups of 4 mice were vaccinated subcutaneously in the footpad 3 times as indicated. One week after the 3rd vaccination, popliteal lymph nodes and spleens were removed and lymph node cells and splenocytes were activated ex vivo with peptide SIINFEKL (“245”) to determine IFN-y-producing specific cells (ELISpot assay).

Experiment [3] concerns SIINFEKL-specific IFN-γ-producing T cells. The experiment can be described thus: Example 3: mice vaccinated subcutaneously in the hind footpads, spleen cells restimulated ex vivo, IFN-γ ELISpot assay. The settings on record: in combination with 100 μg poly-L-arginine; 100 μg peptide s.c. hind footpads; spleen 7 days after vaccination. As for the experimental part: Groups of 4 mice (C57BL/6, female, 8 weeks of age, H-2^b) were injected subcutaneously into the hind footpads as follows (dose 100 μg of peptide, molarity adapted; +100 μg poly-L-arginine per mouse):
Groups of 4 mice were vaccinated subcutaneously in the hind footpads as indicated. 7 days after the vaccination single cell suspensions of spleens were prepared and cells were restimulated ex vivo to detect IFN-γ-producing cells via ELISpot assay.

Turning to “SIINFEKL [ovalbumin derived class I H-2Kb restricted peptide, unmodified wild type, reference compound]”, the “induction of T cells (general statement)” value in experiment [1] (alone or in combination with an adjuvant like poly-L-arginine) is “weak inducer of T cells”.
Take “FIFIFISIINFEKL [SIINFEKL with FIFIFI added at the N-terminus]”: in experiment [1], the “peptide specific T cells induced” value was “about 100 per 1 million spleen cells”.
As to “EDEDSIINFEKL [SIINFEKL with EDED added at the N-terminus]”, in experiment [2], the “induction of specific IFN-γ-producing T cells in the draining (popliteal) lymph node (local response)” value is recorded as “high amount” and the “induction of specific IFN-γ-producing T cells in the spleen (systemic response)” value is “high amount”.
Turning to “FIFISIINFEKL [SIINFEKL with FIFI added at the N-terminus]”, the “peptide specific T cells induced” value in experiment [1] is given as “about 100 per 1 million spleen cells”. The “induction of SIINFEKL-specific IFN-γ-producing T cells” value in experiment [3] is given as “high numbers”.
For the sequence “SIINFEKLFIFI [SIINFEKL with FIFI added at the C-terminus]”, the “induction of SIINFEKL-specific IFN-γ-producing T cells” value in experiment [3] is listed as “high numbers”.
